Source: patent US20050113318A1, “Combination of dehydroepiandrosterone or dehydroepiandrosterone-sulfate with a beta-agonist bronchodilator for treatment of asthma or chronic obstructive pulmonary disease” (priority 2003, published 2005)
Several values for one entry are separate records, joined by “and”; a condition that tells them apart may be missing. Equal entries are not always repeated.

Tests used:
Type in all cases: physicochemical
[1] = Fine particle fraction, single-dose Acu-Breathe inhaler into Andersen impactor; conditions: 30 L/min, IDL data, FIG. 1; result set to zero
Protocol: These blisters are actuated into the Andersen 8-stage cascade impactor at flow rates ranging from 30 to 75 L/min with a glass twin-impinger throat. Stages 1-5 of the Andersen impactor are rinsed together to obtain an estimate of the fine particle fraction. Pooling the drug collected from multiple stages into one assay make the method much more sensitive. […] Using a carrier with a larger particle size typically improves the aerosol properties of micronized drug substances.
Approximately 25 mg of this powder is filled and sealed in foil blisters and aerosolized using the single-dose device at 60 L/min. The aerosol results for this preliminary powder blend are satisfactory for a respiratory drug delivery system. […] This diameter is smaller than the median diameter measured for micronized DHEA-S.dihydrate by laser diffraction. Irregularly shaped particles can behave aerodynamically as smaller particles since their longest dimension tends to align with the air flow field. Therefore, it is common to see a difference between the two methods. Diffraction measurements are a quality control test for the input material while cascade impaction is a quality control test for the finished product.

[2] = HPLC analysis of drug degradation during jet milling; conditions: single-pass and double-pass vs unmilled standard, HPLC peak area
Protocol: Two vials (A; single-pass; 150 mg) and (B double-pass; 600 mg) of the micronized drug were available for determining drug degradation during jet milling micronization. […] The chromatographic peak area for the HPLC assay of the unmilled drug standard solution (10 mg/ml) gave a value of 23,427. […] The chromatographic peak areas for vials A and B were 11,979 and 11,677, respectively.

[3] = Solid-state stability with and without lactose (DHEA formed, HPLC)
Text: These conditions were used to stress the formulation in order to predict its long-term stability results. […] This color change is accompanied by a significant change in the chromatogram as shown in. FIG. 1. The primary degradant is DHEA. […] The materials on accelerated storage become more cohesive with time as evidenced by clumping during sample weighing for chemical analysis. […] This is a considerable disadvantage since lactose is the most commonly used inhalation excipient for dry powder formulations. Continuing with the virtually anhydrous form would mean limiting formulations to neat powder or undertaking more comprehensive safety studies to use a novel excipient.

[4] = Respirable dose studies, Andersen cascade impactor; conditions: 90 L/min
Protocol: The respirable dose (respirable fraction) studies were performed using a standard sampler cascade impactor (Andersen), consisting of an inlet cone (an impactor pre-separator was substituted here), 9 stages, 8 collection plates, and a backup filter within 8 aluminum stages held together by 3 spring clamps and gasket O-ring seals, where each impactor stage contains multiple precision drilled orifices. When air is drawn through the sampler, multiple jets of air in each stage direct any airborne particles toward the surface of the collection plate for that stage. The size of the jets is constant for each stage, but is smaller in each succeeding stage. Whether a particle is impacted on any given stage depends upon its aerodynamic diameter. The range of particle sizes collected on each stage depends upon on the jet velocity of the stage, and the cut-off point of the previous stage. Any particle not collected on the first stage follows the air stream around the edge of the plate to the next stage, where it is either impacted or passed on to the succeeding stage, and so on, until the velocity of the jet is sufficient for impaction. To prevent particle bounce during the cascade impactor test, the individual impactor plates were coated with a hexane-grease (high vacuum) solution (100:1 ratio). As noted above, the particle size cut-off points on the impactor plates changed at different airflow rates. […] The set-up recommended by the United States Phamacopeia for testing dry powder inhalers consists of a mouthpiece adapter (silicone in this case) attached to a glass throat (modified 50 ml round-bottom flask) and a glass distal pharynx (induction port) leading top the pre-separator and Andersen sampler. The pre-separator sample includes washings from the mouthpiece adaptor, glass throat, distal glass pharynx and pre-separator. 5 ml acetonitrile:water (1:1 ratio) solvent was placed in the pre-separator before performing the cascade impactor experiment, that were performed in duplicate with 3 different dry powder inhaler devices and at 3 airflow rates, 30, 60 and 90 L/min. The drug collected on the cascade impactor plates were assayed by the HPLC, and a drug mass balance was performed for each Diskhaler and multi-dose cascade impactor experiment consisting of determining the amount of drug left in the blister, the amount of drug remaining in the device (Diskhaler only), the non-respirable amount of the dose retained on the silicone rubber mouth piece adaptor, glass throat, glass distal pharynx and pre-separator, all combined into one sample, and the respirable dose, i.e. Stage 2 through filter impactor plates for airflow rates of 30 and 60 L/min and Stages 1 through filter impactor plates for 90 L/min experiments.
The cascade impactor experiments were conducted as described in Example 3. Four cascade impactor experiments were done, three with a IDL multi-dose device and one with a Diskhaler, all at 90 L/min. […] However, the % respirable dose was still low. This was likely the result of moisture absorption of the anhydrous form.

[5] = Multi-dose, oven dried drug for 80 minutes
[6] = Multi-dose, oven dried drug for 20 hours

Compound: C[C@]12CC[C@H](OS(=O)(=O)[O-])CC1=CC[C@@H]1[C@@H]2CC[C@]2(C)C(=O)CC[C@@H]12.[Na+] [Anhydrous DHEA-S]
- fine particle fraction [1]: no detectable mass entered the impactor
- degradation of the drug during jet milling micronization [2]: no detectable degradation
- DHEA % formed ([3]; 50° C., 1 week): 9.817%
- DHEA % formed ([3]; 50° C., 2 weeks): 14.954%
- DHEA % formed ([3]; 50° C., 4 weeks): 20.171%
- DHEA % formed ([3]; Control: neat, sealed vial, 25° C., 1 week): 2.694%
- DHEA % formed ([3]; Control: neat, sealed vial, 25° C., 2 weeks): 2.370%
- DHEA % formed ([3]; Control: neat, sealed vial, 25° C., 4 weeks): 2.666%
- DHEA % formed ([3]; Control: neat, sealed vial, 25° C., first time column (head empty, time 0)): 2.774%
- respirable dose of spray-dried compared to micronized anhydrous DHEA-S [4]: two-fold increase
- Blister [4, 5]: 2.8%
- Mass Balance [4, 5]: 100.0%
- Preseparator [4, 5]: 78.7%
- Respirable Dose [4, 5]: 4.6%
- Device ([4]; Multi-dose, oven dried drug for 80 minutes, by difference): 13.9 *^a %
- Blister [4, 6]: 5.0%
- Mass Balance [4, 6]: 100.0%
- Preseparator [4, 6]: 55.9%
- Respirable Dose [4, 6]: 1.2%
- Device ([4]; Multi-dose, oven dried drug for 20 hours, by difference): 37.9 *^a %
- Blister ([4]; jet-milled drug, Diskhaler): 6.6% and 10.1%
- Device ([4]; jet-milled drug, Diskhaler): 22.1% and 13.3%
- Mass Balance ([4]; jet-milled drug, Diskhaler): 104.3% and 86.0%
- Preseparator ([4]; jet-milled drug, Diskhaler): 72.7% and 60.2%
- Respirable Dose ([4]; jet-milled drug, Diskhaler): 2.9% and 2.4%
- Blister ([4]; jet-milled drug, Multi-dose): 3.8% and 3.9%
- Mass Balance ([4]; jet-milled drug, Multi-dose): 100.0%
- Preseparator ([4]; jet-milled drug, Multi-dose): 73.3% and 65.8%
- Respirable Dose ([4]; jet-milled drug, Multi-dose): 3.6% and 3.8%
- Device ([4]; jet-milled drug, Multi-dose, retention obtained by difference): 19.3 *^a % and 26.5 *^a %
- Blisters ([4]; spray-dried drug, Diskhaler): 29.0%
- Device ([4]; spray-dried drug, Diskhaler): 11.2%
- Preseparator ([4]; spray-dried drug, Diskhaler): 56.8%
- Respirable Dose ([4]; spray-dried drug, Diskhaler): 5.6%
